Counter-ions that a name gives are not always drawn. Like-named read-outs stand apart in the source and are kept apart here.
Assays:
[1] = target: T1, α1C Human Adrenergic Receptor (Homo sapiens, UniProt P35348); test: Radioligand binding, [3H]prazosin, cloned human α1C adrenergic receptor
T1 construct: The entire coding region of α1C (1401 bp); expressed in transfected cells
T1 sequence (P35348 1-466): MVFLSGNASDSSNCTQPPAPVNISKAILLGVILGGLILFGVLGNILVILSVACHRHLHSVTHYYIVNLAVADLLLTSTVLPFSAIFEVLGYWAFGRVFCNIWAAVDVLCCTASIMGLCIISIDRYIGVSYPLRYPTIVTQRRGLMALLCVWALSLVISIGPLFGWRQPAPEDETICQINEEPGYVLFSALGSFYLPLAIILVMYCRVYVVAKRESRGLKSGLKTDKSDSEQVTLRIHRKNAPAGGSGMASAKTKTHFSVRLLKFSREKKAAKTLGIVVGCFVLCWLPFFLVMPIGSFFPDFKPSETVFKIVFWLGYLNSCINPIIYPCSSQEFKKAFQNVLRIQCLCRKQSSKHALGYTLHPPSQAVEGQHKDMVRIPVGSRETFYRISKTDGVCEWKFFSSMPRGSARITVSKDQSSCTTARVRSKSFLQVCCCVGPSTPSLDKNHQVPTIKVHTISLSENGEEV
In short: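 Read-out is filter-retained [3H]prazosin (0.5 nM) bound to membranes of LM(tk−) cells stably carrying the human α1C receptor. Incubation ran 20 min at 37° C. at pH 7.5, with 10 μM phentolamine marking nonspecific binding.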

α2A receptor = target: T2, α2A receptor (Homo sapiens, UniProt P08913); test: Competition binding, [3H]rauwolscine, human α2A receptor
T2 construct: host or cells: LM(tk-) cells, line L-α2A
T2 sequence (P08913 1-465): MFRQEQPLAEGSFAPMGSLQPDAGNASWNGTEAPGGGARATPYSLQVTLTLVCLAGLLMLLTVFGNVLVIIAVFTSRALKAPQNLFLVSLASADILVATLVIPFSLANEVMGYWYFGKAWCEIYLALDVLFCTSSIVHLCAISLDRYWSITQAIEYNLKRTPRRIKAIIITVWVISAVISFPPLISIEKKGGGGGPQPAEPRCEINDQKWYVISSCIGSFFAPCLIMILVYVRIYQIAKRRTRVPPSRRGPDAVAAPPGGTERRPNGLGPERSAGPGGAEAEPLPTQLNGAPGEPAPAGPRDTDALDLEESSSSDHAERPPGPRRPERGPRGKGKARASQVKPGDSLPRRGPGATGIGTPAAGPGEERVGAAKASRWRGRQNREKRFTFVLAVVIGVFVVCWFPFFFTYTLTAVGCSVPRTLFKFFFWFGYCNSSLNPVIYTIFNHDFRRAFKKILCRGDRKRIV
In short: (§1)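 Equilibrium displacement of [3H]rauwolscine (0.5 nM) measured on membranes from stably transfected LM(tk−) lines, one per α2 subtype, in glycylglycine buffer at pH 7.6. Nonspecific binding set by 10 μM phentolamine; separation by filtration.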

α2B receptor = target: T3, α2B receptor (Homo sapiens, UniProt P18089); test: Competition binding, [3H]rauwolscine, human α2B receptor
T3 construct: host or cells: LM(tk-) cells, line L-NGC-α2B
T3 sequence (P18089 1-450): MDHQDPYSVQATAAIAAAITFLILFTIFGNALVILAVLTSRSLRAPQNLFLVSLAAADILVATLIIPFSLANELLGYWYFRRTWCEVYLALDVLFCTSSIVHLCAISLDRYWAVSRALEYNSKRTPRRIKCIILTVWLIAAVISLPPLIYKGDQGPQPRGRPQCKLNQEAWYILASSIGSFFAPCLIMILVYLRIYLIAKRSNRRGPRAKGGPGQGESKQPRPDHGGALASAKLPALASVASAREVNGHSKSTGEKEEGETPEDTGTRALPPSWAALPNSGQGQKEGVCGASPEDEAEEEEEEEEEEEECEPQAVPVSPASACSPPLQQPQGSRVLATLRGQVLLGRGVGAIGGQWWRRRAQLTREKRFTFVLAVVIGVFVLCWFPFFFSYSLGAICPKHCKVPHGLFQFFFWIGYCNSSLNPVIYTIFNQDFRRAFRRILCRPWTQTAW
In short: as §1

[2] = pKi alpha-1 1c, cloned human α1C receptor, LM(tk−) cell membranes
[3] = [3H]rauwolscine, human α2A receptor, LM(tk−) cells, read-out: pKi alpha-2 2a (converted)
[4] = pKi alpha-2 2b, [3H]rauwolscine, human α2B receptor, LM(tk−) cells
[5] = cloned human receptor in LM(tk-) cell membranes, SEM and n in lines below, read-out: pKi alpha-1 1c (converted)
[6] = pKi alpha-1 1c, cloned human receptor in LM(tk-) cell membranes, SEM and n in lines below
[7] = [3H]rauwolscine, LM(tk-) cell line L-α2A, SEM and n in lines below, read-out: pKi alpha-2 2a (converted)
[8] = pKi alpha-2 2b, [3H]rauwolscine, LM(tk-) cell line L-NGC-α2B, SEM and n in lines below
[9] = cloned human α1C receptor, LM(tk−) cell membranes, read-out: pKi alpha-1 1c (converted)
[10] = [3H]rauwolscine, LM(tk-) cell line L-NGC-α2B, SEM and n in lines below, read-out: pKi alpha-2 2b (converted)

SMILES	Ki [1, 2] [nM]	Ki (α2A receptor; [3]) [nM]	Ki (α2B receptor; [4]) [nM]	Ki [1, 5] [nM]	Ki (α2A receptor) [nM]	Ki (α2B receptor; pKi alpha-2 2b) [nM]	other results
CCC1=C(C(N)=O)C(c2ccc([N+](=O)[O-])cc2)C(C(=O)NCCCN2CCC(C#N)(c3ccccc3)CC2)=C(CC)N1 (single isomer, unassigned; (+)) [(+)-102]	2.63	3890	1910	–	–	–	–
COC(=O)C1=C(C)NC(C)=C(C(=O)NCCCN2CCC(c3ccccc3)(c3ccccc3)CC2)C1c1ccc(OC)c(OC)c1 (stereo not drawn) [Example 26]	–	–	–	7.08	2140	977	–
CCC1=C(C(=O)NCCCN2CCC(c3ccccc3)(c3ccccc3)CC2)C(c2ccc([N+](=O)[O-])cc2)C(C(=O)OC(C)(C)C)=C(COCCN=[N+]=[N-])N1 (stereo not drawn) [Example 139]	23.4	832	1260	–	–	–	–
CNC(=O)C1=C(C)NC(C)=C(C(=O)NCCCN2CCC(O)(c3ccccc3)CC2)C1c1ccc([N+](=O)[O-])cc1 (stereo not drawn) [Example 162, 1,4-Dihydro-3-{N-[3-(4-hydroxy-4-phenylpiperidin-1-yl)propyl]}carboxamido-2,6-dimethyl-5-(N-methyl)carboxamido-4-(4-nitrophenyl)pyridine]	11.5	631	347	–	–	–	–
CC1=C(C(=O)NCCCN2CCC(c3ccccc3)(c3ccccc3)CC2)C(c2ccc([N+](=O)[O-])cc2)c2c([nH]c(=O)[nH]c2=O)N1 (stereo not drawn) [Example 64]	–	–	–	–	–	–	Ki [1, 6]: 35.5 nM; Ki (α2A receptor; [7]): 692 nM; Ki (α2B receptor; [8]): 437 nM
CCC1=C(C(N)=O)C(c2ccc([N+](=O)[O-])cc2)C(C(=O)NCCCN2CCC(c3ccc(OC)cc3)(c3ccc(OC)cc3)CC2)=C(CC)N1 (stereo not drawn) [Example 103, 5-Carboxamido-2,6-diethyl-1,4-dihydro-3-{N-[3-(4,4-bis-(4-methoxyphenyl)piperidin-1-yl)propyl]}carboxamido}-4-(4-nitrophenyl)pyridine hydrochloride]	–	–	–	–	490	741	Ki [1, 9]: 10.7 nM
COC(=O)C1=C(C)NC(C)=C(C(=O)NCCCN2CCC(c3ccccc3)(c3ccccc3)CC2)C1c1ccncc1 (stereo not drawn) [Example 5, 1,4-Dihydro-5-methoxycarbonyl-2,6-dimethyl-3-(N-(3-(4,4-diphenylpiperidin-1-yl)propyl)carboxamido)-4-(4-pyridyl)pyridine]	–	–	–	11.2	2240	2140	–
COC(=O)C1=C(C)NC(C)=C(C(=O)NCCCN2CCC(c3ccccc3)(c3ccccc3)CC2)C1c1ccc(Cl)cc1 (stereo not drawn) [Example 10, 4-(4-Chlorophenyl)-1,4-dihydro-5-methoxycarbonyl-2,6-Dimethyl-5-(N-(3-(4,4-diphenylpiperidin-1-yl)propyl)carboxamido)pyridine]	–	–	–	1.78	2340	3310	–
COC(=O)C1=C(C)NC(C)=C(C(=O)NCCCN2CCC(c3ccccc3)(c3ccccc3)CC2)C1c1ccc(C)cc1 (stereo not drawn) [Example 19, 1,4-Dihydro-3-methoxycarbonyl-1,6-dimethyl-4-(4-methylphenyl)-5-(N-(3-(4,4-diphenylpiperidin-1-yl)propyl)carboxamido)pyridine]	–	–	–	1.35	1290	912	–
COC(=O)C1=C(C)NC(C)=C(C(=O)NCCCN2CCC(c3ccccc3)(c3ccccc3)CC2)C1c1ccc(F)cc1 (stereo not drawn) [Example 20, 4-(4-Fluorophenyl)-1,4-dihydro-3-methoxycarbonyl-2,6-dimethyl-5-(N-(3-(4,4-diphenylpiperidin-1-yl)propyl)carboxamido)pyridine]	–	–	–	3.8	1780	1320	–
COC(=O)C1=C(C)NC(C)=C(C(=O)NCCCN2CCC(c3ccccc3)(c3ccccc3)CC2)C1C1CCCCC1 (stereo not drawn) [Example 6]	–	–	–	148	832	447	–
COC(=O)C1=C(C)NC(C)=C(C(=O)NCCCN2CCC(c3ccccc3)(c3ccccc3)CC2)C1c1ccc([N+](=O)[O-])c(OC)c1 (stereo not drawn) [Example 29, 1,4-Dihydro-3-methoxycarbonyl-4-(3-methoxy-4-nitrophenyl)-2,6-dimethyl-5-(N-(3-(4,4-diphenylpiperidin-1-yl)propyl)carboxamido)pyridine]	–	–	–	1.48	–	–	Ki (α2A receptor; [7]): 692 nM; Ki (α2B receptor; [10]): 631 nM
CC1=C(C#N)C(c2ccc([N+](=O)[O-])cc2)C(C(=O)NCCCN2CCC(c3ccccc3)(c3ccccc3)CC2)=C(C)N1 (stereo not drawn) [Example 37]	–	–	–	22.9	708	1070	–
COC(=O)C1=C(C)NC(C)=C(C(=O)NCCCN2CCC(c3ccccc3)(c3ccccc3)CC2)C1c1ccc([N+](=O)[O-])c(C)c1 (stereo not drawn) [Example 28]	–	–	–	9.55	–	–	Ki (α2A receptor; [7]): 2290 nM; Ki (α2B receptor; [10]): 1660 nM
CCC1=C(C(=O)NCCCN2CCC(c3ccccc3)(c3ccccc3)CC2)C(c2cccc(OC)c2)C(C(N)=O)=C(C)N1 (stereo not drawn) [Example 113, 5-Carboxamide-2-ethyl-1,4-dihydro-4-(3-methoxyphenyl)-6-methyl-3-(N-(3-(4,4-diphenylpiperidin-1-yl)propyl)carboxamido)-pyridine]	17.8	759	166	–	–	–	–
CCC1=C(C(=O)NCCCN2CCC(c3ccccc3)(c3ccccc3)CC2)C(c2ccc([N+](=O)[O-])cc2)C(C(=O)NC)=C(COCCN=[N+]=[N-])N1 (stereo not drawn) [Example 151, 2-((2-Azidoethyl)oxy)methyl-6-ethyl-1,4-dihydro-3-(N-methyl)carboxamido-4-(4-nitro)phenyl-5-(N-(3-(4,4-diphenylpiperidin-1-yl)propyl))carboxamidopyridine]	12.3	562	537	–	–	–	–
CCC1=C(C(=O)NCCCN2CCC(c3ccccc3)(c3ccccc3)CC2)C(c2cccc(OC)c2)C(C(=O)NCCCN2CCC(c3ccccc3)(c3ccccc3)CC2)=C(CC)N1 [Example 112, 2,6-Diethyl-1,4-dihydro-4-(3-methoxyphenyl)-3,5-bis(N-(3-(4,4-diphenylpiperidin-1-yl)propyl)carboxamido)-pyridine]	24.5	257	447	–	–	–	–
CCC1=C(C(N)=O)C(c2ccc([N+](=O)[O-])cc2)C(C(=O)NCCCN2CCC3(CC2)C(=O)NCN3c2ccccc2)=C(CC)N1 (stereo not drawn) [Example 105, 5-Carboxamido-2,6-diethyl-1,4-dihydro-4-(4-nitrophenyl)-3-{N-[3-(1-phenyl-4-oxo-1,3,8-triazaspiro[4.3]decan-8-yl)propyl]}carboxamidopyridine hydrochloride hydrate]	–	–	–	–	1260	2190	Ki [1, 9]: 692 nM
CCC1=C(C(N)=O)C(c2ccc([N+](=O)[O-])cc2)C(C(=O)NCCCN2CCC(c3ccccc3)(c3ccccc3)CC2)=C(CC)N1 (stereo not drawn) [Example 42, 5-carboxamido-2,6-diethyl-1,4-dihydro-4-(4-nitrophenyl)-3-{N-[3-(4,4-diphenylpiperidin-1-yl)propyl]}carboxamidopyridine]	–	–	–	–	–	–	Ki [1, 6]: 1.26 nM; Ki (α2A receptor; [7]): 324 nM; Ki (α2B receptor; [8]): 229 nM
